These are literature values, as cited in patent publication US11510895B2, “Compositions and formulations including cabazitaxel and human serum albumin” (Zhuhai Beihai Biotech Co., Ltd., priority 2016, dated 2022).

Data set [1] deals with human serum proteins. The following applies: in vitro.
In data set [2] the target is human serum albumin (Homo sapiens, UniProt P02768). The following applies: in vitro.
Chain of human serum albumin (P02768 25-609): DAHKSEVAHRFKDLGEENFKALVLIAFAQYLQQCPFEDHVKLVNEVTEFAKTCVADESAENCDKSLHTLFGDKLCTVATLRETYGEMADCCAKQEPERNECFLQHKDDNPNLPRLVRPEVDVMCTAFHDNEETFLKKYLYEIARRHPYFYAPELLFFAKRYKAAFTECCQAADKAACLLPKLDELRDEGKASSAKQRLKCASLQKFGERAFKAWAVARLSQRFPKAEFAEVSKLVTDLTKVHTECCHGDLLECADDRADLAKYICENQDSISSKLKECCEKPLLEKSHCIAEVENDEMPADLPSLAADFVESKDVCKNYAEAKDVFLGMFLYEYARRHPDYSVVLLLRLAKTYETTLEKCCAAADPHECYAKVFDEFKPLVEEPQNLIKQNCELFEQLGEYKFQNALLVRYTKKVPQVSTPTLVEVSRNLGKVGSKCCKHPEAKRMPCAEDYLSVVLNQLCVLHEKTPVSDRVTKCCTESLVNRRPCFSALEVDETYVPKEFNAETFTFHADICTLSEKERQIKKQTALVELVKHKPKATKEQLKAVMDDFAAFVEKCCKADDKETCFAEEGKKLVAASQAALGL

For the molecule `CO[C@H]1C(=O)[C@]2(C)[C@@H](OC)C[C@H]3OC[C@@]3(OC(C)=O)[C@H]2[C@H](OC(=O)c2ccccc2)[C@]2(O)C[C@H](OC(=O)[C@H](O)[C@@H](NC(=O)OC(C)(C)C)c3ccccc3)C(C)=C1C2(C)C` [cabazitaxel], the solubility in alcohol result is reported as “soluble” and the solubility in water entry is given as “practically insoluble”. Further, the “saturability of the binding to human serum proteins” value in data set [1] is “not saturable up to 50,000”. Moreover, in data set [2], the “bound to human serum albumin” value was 82%.
